Measured values reported in patent publication US20260355180A1, “COMPOSITIONS AND METHODS FOR SPLICEOSOME-TARGETED THERAPIES” (Institute for Cancer Research d/b/a The Research Institute …, priority 2022, published 2026).
“Also recorded” adds a separate entry of the source.

Key:
[1] = test system: MEF Flag-ZBP1 cells; assay: Survival of PlaB treated MEF Flag-ZBP1; assay type: cell-based, mouse
Procedure: FIG. 16: Analysis of the effect of spliceosome inhibition on necroptosis in WT MEF cells. EV refers to cells treated with an empty vector.
(§1) Since induction of Z-nAs can result in ZBP1-dependent necroptosis, we analyzed induction of necroptosis in necroptotic competent MEFs using spliceosome inhibition. […] We also determined that MEFs ΔZBP1, WT, and Flag-ZBP1 cells treated with PlaB began dying within 24hours after treatment. With MEF Flag-ZBP1 cells showing only 20% survival after 24 hours (FIG. 16).

[2] = test system: ZBP1-KO RPPM631 cells; assay: Viability of ZBP1-KO RPPM631 cells; assay type: cell-based, mouse; settings: PlaB
From the text: (§2) Next, we prepared ZBP1-KO RPPM631 cells to determine whether the necroptosis was ZBP-1 dependent.

[3] = test system: H82 SCLC cells; assay: Cell survival after PlaB treatment, H82; assay type: cell-based
Procedure: (§3) FIG. 2A) SCLC cell lines (H446 and H82) and immortalized fibroblasts (FC1010 and HS68) cell survival curves after 72 hours of PlaB treatment. FIG. 2B) RIPK1 depletion rescues H82 and H446 cell survival after 18 hours of PlaB treatment. FIG. 2C) Western blot showing RIPK1 protein depletion. Mean±SEM, Welch's t test *p<0.05, **p<0.01.
(§4) Cancer deregulates splicing^31,32, and we hypothesized that hyper-proliferative SCLCs are dependent on splicing machineries for increased tumorigenicity^90.

[4] = test system: H446 cells; assay: Immunofluorescence of A-RNA (J2) and Z-NA (Z22), H446; assay type: cell-based, human
From the text: FIG. 4A-4C: SF3B1 perturbation increases dsRNA and Z-nucleic acid levels in treated cells. […] (FIG. 4B) Quantification of A-RNA and Z-Nucleic acids. (FIG. 4C) Western blot showing induction of cleaved-PARP, pH2AX, and ZBP1, and the reduction of RIPK1 protein levels. Plots of signal intensity are mean±SEM, two-tailed unpaired Student's t test **p<0.01, ****p<0.0001.
Our observations led us to explore what caused the elevated IFN response. We used an immunofluorescence (IF) technique to determine if A-RNA was increased after PlaB treatment.

[5] = test system: H82 SCLC cells; assay: Antigen (HLA-ABC) and PD-L1 expression, H82; assay type: cell-based; settings: 48 hours of 0.5 nM PlaB
From the text: FIG. 3A-3D: SF3B1 inhibition induces a potent IFN response and increases expression of IFN-regulated proteins. […] Mean±SEM, two-tailed unpaired Student's t test *p<0.05, **p<0.01, ***p<0.001, ****p<0.0001.
We also observed that SF3B1 inhibition triggers robust anti-tumor response and upregulates IFN-β, IFN-γ, and IFN-responsive genes by real-time reverse-transcription quantitative polymerase chain reaction (rRT-qPCR) in H446 and H82 cells (FIGS. 3A and 3B). […] These observations indicate that spliceosome inhibition is useful as a targeted therapy for SCLCs.

[6] = test system: wild type RPPM631 cells; assay: Viability of wild type RPPM631 cells; assay type: cell-based, mouse; settings: PlaB
From the text: as §2

[7] = test system: MEF ΔZα cells; assay: pMLKL western blot / necroptosis, MEF ΔZα; assay type: cell-based, mouse; settings: 2.5 nM PlaB, 18 hours
Procedure: (§5) FIG. 5A-5E: SF3B1 perturbation upregulates A-RNA and Z-nucleic acids in MEFs. (FIG. 5A) 5 nM of PlaB induces A-RNA and Z-Nucleic acids in ΔZBP1 MEF cells. (FIG. 5B) Quantification of A-RNA and Z-Nucleic acids. […] Plots of signal intensity are mean±SEM, two-tailed unpaired Student's t test *p<0.05, ***p<0.001, ****p<0.0001. 18 hours of PlaB treatment for IF, WB and rescue experiments. IF: 5 nM PlaB, WB and rescue experiments: 2.5 nM PlaB.
as §1

[8] = test system: H446 SCLC cells; assay: RIPK1 depletion rescue of PlaB cytotoxicity, H446; assay type: cell-based, human; settings: 18 hours of PlaB, RIPK1 depleted H446
Procedure: as §3, §4

[9] = test system: MEF Flag-ZBP1 cells; assay: pMLKL western blot / necroptosis, MEF Flag-ZBP1; assay type: cell-based, mouse; settings: 2.5 nM PlaB, 18 hours, MEF Flag-ZBP1 (full-length ZBP1)
Procedure: as §5, §1

[10] = test system: MEF cells; assay: A-RNA and Z-NA in MEF after PlaB with or without nucleases; assay type: cell-based, mouse
Procedure: FIG. 11A-11B: Analysis of Z-NA and A-RNA sources. (FIG. 11A) […] A-Nucleic acid accumulation in MEF cells after treatment with PlaB with or without Dnasel, RnaseA, or Rnase H. (FIG. 11B) Quantification of A-RNA and Z-Nucleic acids in treated cells. MEF EV refers to MEF cells treated with an empty vector.
The increases in A-RNA and Z-NA was further analyzed in MEF cells. Cells were treated with PlaB alone, or in combination with dNasel (dsDNA), rNaseA(dsRNA at [high]), or […] (DNA/RNA hybrid). […] (FIG. 11A-11B).

[11] = test system: H82 SCLC cells; assay: RIPK1 depletion rescue of PlaB cytotoxicity, H82; assay type: cell-based; settings: 18 hours of PlaB, RIPK1 depleted H82
Procedure: as §3, §4

[12] = test system: MEF ΔZBP1 cells; assay: pMLKL western blot / necroptosis, MEF ΔZBP1; assay type: cell-based, mouse; settings: 2.5 nM PlaB, 18 hours
Procedure: as §5, §1

[13] = test system: MEF RA cells; assay: pMLKL western blot / necroptosis, MEF RHIM-A mutant (RA); assay type: cell-based, mouse; settings: 2.5 nM PlaB, 18 hours
Procedure: as §5, §1

[14] = PlaB and dNasel, rNaseA, or RnaseH

CCC(O)C(C)C1OC1CC(C)C=CC=C(C)C1OC(=O)CC(O)CCC(C)(O)C(OC(C)=O)C=CC1C (centres unmarked) [PlaB, Pladienolide B]
time after treatment at which cells began dying ([1]; MEF Flag-ZBP1): ≤ 24 h | survival ([1]; MEF Flag-ZBP1, after 24 hours): 20% | viability [2]: only a minor decrease in viability | cell survival ([3]; 72 hours of PlaB, H82): drastically reduces cell survival; also recorded: dramatically reduces SCLC cell survival | sensitivity to SF3B1 inhibition ([3]; nanomolar concentration of PlaB): particularly sensitive | A-RNA level ([4]; 6 hours, mouse J2 antibody, H446): robust induction | Z-NA level ([4]; 6 hours, rabbit Z22 antibody, H446): significant increase | accumulation of A-RNA ([4]; low dose, J2 antibody): induces accumulation | accumulation of Z-Nucleic acids ([4]; low dose, Z22 antibody): induces accumulation | PD-L1 expression [5]: effectively upregulates | antigen expression [5]: effectively upregulates | viability [6]: significant decrease in viability | pMLKL (necroptosis) ([7]; MEF ΔZα): not triggered | PlaB-mediated necroptosis ([7]; MEF ΔZα mutant): avoid PlaB-mediated necroptosis | cell survival upon RIPK1 depletion [8]: rescues | pMLKL (necroptosis) [9]: triggered pMLKL; also recorded: induction of pMLKL | A-RNAs and Z-nAs ([10]; PlaB alone): increase in both A-RNAs and Z-nAs | A-RNAs and Z-nAs [10, 14]: still showed an increase in A-RNAs and Z-nAs | increase in A-RNAs relative to PlaB alone [10, 14]: not as robust as PlaB alone | cell survival upon RIPK1 depletion [11]: rescues | pMLKL (necroptosis) [12]: not triggered | pMLKL (necroptosis) ([13]; MEF RA): not triggered | PlaB-mediated necroptosis ([13]; MEF RHIM-A mutant): avoid PlaB-mediated necroptosis
